Laboratory results as given in patent US20200131161A1, “NOVEL POCHONIOLIDE COMPOUND AND USE THEREOF” (THE KITASATO INSTITUTE, priority 2017, published 2020).

Key:
[1] = Effects for decreasing acrylamide in model food (french fries); details: test compound at final concentration of 1% applied to formed potatoes, fried in oil at 170 to 200 degrees for 1 minute; for concentration of acrylamide produced: control 7 ppm
Description: Pochoniolides B and C were evaluated in terms of effects of decreasing acrylamide in a model food (french fries) using dihydroquercetin as a positive control. Commercially available frozen french fries (raw) were thawed and a portion of 10 g was separated. The portion of 10 g was ground in a mortar and formed into individual homogeneous portions of 1 g each, followed by forming. The test compounds were dissolved in a small amount of ethanol to a final concentration of 1%. The ethanol solution was homogeneously applied to the formed potatoes. The potatoes were fried in oil at 170 to 200 degrees for 1 minute, and measurement of the acrylamide concentration was requested to Morinaga Institute of Biological Science, Inc. The results are shown in FIG. 7. While the concentration of acrylamide produced was 7 ppm with the addition of control sample, the concentration of acrylamide produced was 4 ppm with the addition of dihydroquercetin as a positive control. No effects of pochoniolide B for decreasing the amount of acrylamide production were observed. The concentration of acrylamide produced was 2 ppm in the group to which pochoniolide C was added.

[2] = Acrylamide produced by Maillard reaction using a mixture of asparagine and glucose (Morinaga acrylamide EIA kit); details: compound at 6 mg/ml final concentration; heated in autoclave 121° C. 20 minutes; untreated sample 51 ng/ml
Description: An aqueous solution (0.25 ml) of 100 mg/ml glucose (Wako Pure Chemical Corporation) treated with Chelex 100 (Bio-Rad Laboratories, Inc.) and an aqueous solution (0.5 ml) of 50 mg/ml asparagine (Wako Pure Chemical Corporation) treated with Chelex 100 (Bio-Rad Laboratories, Inc.) were introduced into a 1.5-ml microtube. Pochoniolides A, B, and C dissolved in methanol to a fmal concentration of 6 mg/ml and dihydroquercetin (final concentration 10% methanol) as a positive control were added, and the total amount of the solution was adjusted to 1.0 ml with the addition of distilled water. After the resultant was heated in an autoclave at 121° C. for 20 minutes, the amount of acrylamide produced was measured with the use of Morinaga acrylamide EIA kit (Morinaga Institute of Biological Science, Inc.) in accordance with the protocols.

[3] = system: Bacillus subtilis ATCC 6633, Micrococcus luteus ATCC 9341, Escherichia coli NIHJKB213, Xanthomonas campestris pv. oryzae KB 88, Candida albicans KF1, Mucor …; format: cell-based
[4] = Solubility (physicochemical properties); details: DMSO, acetone, water, methanol
[5] = system: HeLaS3 cells, A549 cells, H1299 cells, HT29 cells, Pancl cells, Jurkat cells, HL60 cells, THP-1 cells; experiment: Cytotoxicity test in vitro, cell viability by WST-8; format: cell-based; details: at 100 μM, all eight human cell lines, culture for 2 days
Description: Cytotoxicity of the pochoniolides of the present invention on various cells was tested. Human cervical cancer-derived HeLaS3 cells, human lung cancer-derived A549 cells, human lung cancer-derived H1299 cells (not expressing p53), human colon adenocarcinoma HT29 cells, human pancreatic cancer […], human acute T cell leukemia-derived Jurkat cells, human promyelocyte leukemia HL60 cells, and human acute monocytic leukemia THP-1 cells were subjected to evaluation of cytotoxicity by measuring cell viability using WST-8 (Dojindo Laboratories). The cells that had reached 80% confluence were counted using a hemocytometer, and a cell suspension was prepared. The cell suspension was dispensed into each well of a 96-well microplate at 100 μl/well using multichannel pipettes. Only a medium was added to a blank (background) well in an amount of 100 μl. HeLaS3 cells, A549 cells, H1299 cells, HT29 cells, and […] cultured for 24 hours in a CO2-incubator, Jurkat cells, HL60 cells, and THP-1 cells were cultured for 1 to 2 hours in a CO2-incubator. Solutions of the compounds diluted 3-fold from 10 mM to 100 μM in methanol or dimethyl sulfoxide were prepared, and the resulting solutions were then added at 1 μl/well (final concentration: 100 μM to 1 μM). After culture was performed for 2 days, 10 μl of the WST-8 reagent was introduced into each well, culture was performed for 30 to 60 minutes, and the absorbance at 460 nm was measured. The cell viability was determined in accordance with the following equation. Cell viability (%)=[(As-Ab)/(Ac-Ab)]×100 • As: Absorbance of sample (a well containing cells, pochoniolide A, B, or C, and a WST-8 solution) • Ac: Absorbance of control (a well containing cells and a WST-8 solution without pochoniolide A, B, or C) • Ab: Absorbance of blank (a well containing a medium and a WST-8 solution without cells)

Row | Molecule | concentration of acrylamide produced [1] [ppm] | amount of acrylamide produced [2] [ng/mL] | antibacterial activity (growth-inhibiting circle) [3] | Solubility [4] | cytotoxicity (cell viability) [5] | effects for decreasing the amount of acrylamide production [1]
1 | O=C1c2c(O)cc(O)cc2O[C@H](c2ccc(O)c(O)c2)[C@H]1O [dihydroquercetin, reference compound] | 4 | 28 | – | – | – | –
2 | O=C(O)CC1OC(=O)C=C1c1coc2cc(O)cc(O)c2c1=O (stereo not shown) [pochoniolide A] | – | 53 | no antibacterial activity | easily soluble in DMSO and acetone, but hardly soluble in water and methanol | no toxicity | –
3 | O=C(O)CC1OC(=O)C=C1C1Oc2cc(O)cc(O)c2C(=O)C1O (stereo not shown) [pochoniolide C] | 2 | 18 | no antibacterial activity | easily soluble in DMSO and acetone, but hardly soluble in water and methanol | no toxicity | –
4 | pochoniolide B | – | 9 | no antibacterial activity | easily soluble in DMSO and acetone, but hardly soluble in water and methanol | no toxicity | No effects
